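48-hour exposure; five concentrations; linearly interpolated endpoints. GI50 marks 50% less growth.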 The source made the active and inactive calls. Rule as the data show it: active = GI50 up to about 1.1 µM and inactive = higher.
How the values were obtained:
Assay in all cases: inhibition of tumour cell growth, NCI panel, 48 h
786-0 = system: 786-0
A498 = system: A498
A549 = system: A549
CAKI-1 = system: CAKI-1
CCRF-CEM = system: CCRF-CEM
COLO 205 = system: COLO 205
DLD-1 = system: DLD-1
DMS-114 = system: DMS-114
DMS-273 = system: DMS-273
EKVX = system: EKVX
HCC 2998 = system: HCC 2998
HCT-15 = system: HCT-15
HL-60 = system: HL-60
HOP-18 = system: HOP-18
HOP-62 = system: HOP-62
HOP-92 = system: HOP-92
HT-29 = system: HT-29
IGROV-1 = system: IGROV-1
K562 = system: K562
KM-20L2 = system: KM-20L2
KM12 = system: KM12
LOX IMVI = system: LOX IMVI
M19-MEL = system: M19-MEL
MOLT-4 = system: MOLT-4
Malme-3M = system: Malme-3M
NCI-H23 = system: NCI-H23
NCI-H460 = system: NCI-H460
NCI-H522 = system: NCI-H522
OVCAR-3 = system: OVCAR-3
OVCAR-5 = system: OVCAR-5
OVCAR-8 = system: OVCAR-8
RPMI-8226 = system: RPMI-8226
RXF 393 = system: RXF 393
SF-268 = system: SF-268
SF-295 = system: SF-295
SF-539 = system: SF-539
SK-MEL-28 = system: SK-MEL-28
SK-MEL-2 = system: SK-MEL-2
SK-MEL-5 = system: SK-MEL-5
SK-OV-3 = system: SK-OV-3
SN12C = system: SN12C
SNB-19 = system: SNB-19
SNB-75 = system: SNB-75
SNB-78 = system: SNB-78
SW-620 = system: SW-620
TK-10 = system: TK-10
U-251 = system: U-251
UACC-257 = system: UACC-257
UACC-62 = system: UACC-62
UO-31 = system: UO-31
ACHN = system: ACHN
HCT-116 = system: HCT-116
LXFL 529 = system: LXFL 529
M14 = system: M14
NCI-H226 = system: NCI-H226
OVCAR-4 = system: OVCAR-4
SR = system: SR

With `Cc1nc(N)sc1C(=O)/C=C/c1ccc([N+](=O)[O-])cc1` the GI50 (786-0) was > 100 µM (inactive), the GI50 (A498) was > 100 µM (inactive) and the GI50 (A549) was > 100 µM (inactive). The GI50 (CAKI-1) was > 100 µM (inactive), the GI50 (CCRF-CEM) was > 100 µM (inactive) and the GI50 (COLO 205) was > 100 µM (inactive). For the same compound, the GI50 (DLD-1) was > 100 µM (inactive), the GI50 (DMS-114) was > 100 µM (inactive) and the GI50 (DMS-273) was > 100 µM (inactive). For the same compound, the GI50 (EKVX) was > 100 µM (inactive), the GI50 (HCC 2998) was > 100 µM (inactive) and the GI50 (HCT-15) was over 100 µM. For the same compound, the GI50 (HL-60) was > 100 µM (inactive), the GI50 (HOP-18) was > 100 µM (inactive) and the GI50 (HOP-62) was > 100 µM (inactive). For the same compound, the GI50 (HOP-92) was > 100 µM (inactive), the GI50 (HT-29) was > 100 µM (inactive) and the GI50 (IGROV-1) was > 100 µM (inactive). For the same compound, the GI50 (K562) was > 100 µM (inactive), the GI50 (KM-20L2) was > 100 µM (inactive) and the GI50 (KM12) was > 100 µM (inactive). For the same compound, the GI50 (LOX IMVI) was > 100 µM (inactive), the GI50 (M19-MEL) was > 100 µM (inactive) and the GI50 (MOLT-4) was > 100 µM (inactive). The GI50 (Malme-3M) was > 100 µM (inactive), the GI50 (NCI-H23) was > 100 µM (inactive) and the GI50 (NCI-H460) was > 100 µM (inactive). The GI50 (NCI-H522) was > 100 µM (inactive), the GI50 (OVCAR-3) was > 100 µM (inactive) and the GI50 (OVCAR-5) was > 100 µM (inactive). For the same compound, the GI50 (OVCAR-8) was > 100 µM (inactive), the GI50 (RPMI-8226) was > 100 µM (inactive) and the GI50 (RXF 393) was > 100 µM (inactive). The GI50 (SF-268) was > 100 µM (inactive), the GI50 (SF-295) was > 100 µM (inactive) and the GI50 (SF-539) was > 100 µM (inactive). For the same compound, the GI50 (SK-MEL-28) was > 100 µM (inactive), the GI50 (SK-MEL-2) was > 100 µM (inactive) and the GI50 (SK-MEL-5) was > 100 µM (inactive). The GI50 (SK-OV-3) was > 100 µM (inactive), the GI50 (SN12C) was > 100 µM (inactive) and the GI50 (SNB-19) was > 100 µM (inactive). For the same compound, the GI50 (SNB-75) was 64.6 µM (inactive), the GI50 (SNB-78) was > 100 µM (inactive) and the GI50 (SW-620) was > 100 µM (inactive). For the same compound, the GI50 (TK-10) was > 100 µM (inactive), the GI50 (U-251) was > 100 µM (inactive) and the GI50 (UACC-257) was > 100 µM (inactive). The GI50 (UACC-62) was > 100 µM (inactive) and the GI50 (UO-31) was > 100 µM (inactive).

With `CCN(CC)CC1CCCCN1CC(=O)N1CC(C)C(=O)Nc2ccccc21` (configuration not stated) the GI50 (786-0) was > 100 µM (inactive), the GI50 (A498) was > 100 µM (inactive) and the GI50 (A549) was > 100 µM (inactive). The GI50 (ACHN) was > 100 µM (inactive), the GI50 (CAKI-1) was > 100 µM (inactive) and the GI50 (CCRF-CEM) was > 100 µM (inactive). For the same compound, the GI50 (COLO 205) was > 100 µM (inactive), the GI50 (DLD-1) was > 100 µM (inactive) and the GI50 (DMS-114) was > 100 µM (inactive). For the same compound, the GI50 (DMS-273) was > 100 µM (inactive), the GI50 (HCC 2998) was > 100 µM (inactive) and the GI50 (HCT-116) was > 100 µM (inactive). For the same compound, the GI50 (HCT-15) was over 100 µM, the GI50 (HL-60) was > 100 µM (inactive) and the GI50 (HOP-18) was > 100 µM (inactive). For the same compound, the GI50 (HOP-62) was > 100 µM (inactive), the GI50 (HOP-92) was > 100 µM (inactive) and the GI50 (HT-29) was > 100 µM (inactive). The GI50 (IGROV-1) was > 100 µM (inactive), the GI50 (K562) was > 100 µM (inactive) and the GI50 (KM-20L2) was > 100 µM (inactive). The GI50 (LOX IMVI) was > 100 µM (inactive), the GI50 (LXFL 529) was > 100 µM (inactive) and the GI50 (M14) was > 100 µM (inactive). For the same compound, the GI50 (M19-MEL) was > 100 µM (inactive), the GI50 (MOLT-4) was > 100 µM (inactive) and the GI50 (Malme-3M) was > 100 µM (inactive). For the same compound, the GI50 (NCI-H226) was > 100 µM (inactive), the GI50 (NCI-H23) was > 100 µM (inactive) and the GI50 (NCI-H460) was > 100 µM (inactive). For the same compound, the GI50 (OVCAR-3) was > 100 µM (inactive), the GI50 (OVCAR-4) was > 100 µM (inactive) and the GI50 (OVCAR-5) was > 100 µM (inactive). The GI50 (RPMI-8226) was > 100 µM (inactive), the GI50 (SF-268) was > 100 µM (inactive) and the GI50 (SF-295) was > 100 µM (inactive). For the same compound, the GI50 (SK-MEL-28) was > 100 µM (inactive), the GI50 (SK-MEL-5) was > 100 µM (inactive) and the GI50 (SK-OV-3) was > 100 µM (inactive). For the same compound, the GI50 (SN12C) was > 100 µM (inactive), the GI50 (SNB-19) was > 100 µM (inactive) and the GI50 (SR) was > 100 µM (inactive). The GI50 (SW-620) was > 100 µM (inactive), the GI50 (U-251) was > 100 µM (inactive) and the GI50 (UACC-257) was > 100 µM (inactive). For the same compound, the GI50 (UACC-62) was > 100 µM (inactive) and the GI50 (UO-31) was > 100 µM (inactive).

— ChEMBL document CHEMBL1201862, “PubChem BioAssay data set” (2004)
